Assay results taken from patent US20250051337A1 (priority 2021, published 2025).
Read-outs that look alike come from different tables or passages of the source.

Key:
STK3 = STK3 (Homo sapiens (Human), UniProt Q13188); test: ADP-Glo kinase assay, STK3; type: biochemical
Procedure: (§1) The STK3 kinase assay was performed in 5 μL reaction buffer containing 50 ng recombinant human STK3 protein (full length, SignalChem #S24-10G; Richmond, Canada), 250 μg/mL myelin basic protein (Sigma-Aldrich #M1891; St. Louis, MO, USA), and 50 μM ATP (Sigma-Aldrich #A7699). The STK4 kinase assay was performed in 5 μL reaction buffer containing 50 ng recombinant human STK4 protein (full length, SignalChem #S25-10G), 300 μg/mL Axltide (SignalChem #A16-58), and 50 μM ATP. […] Three experiments were performed, each in triplicate.

STK4 = STK4 (Homo sapiens (Human), UniProt Q13043); test: ADP-Glo kinase assay, STK4; type: biochemical; details: ADP-Glo, 50 μM ATP; read-out: STK4 IC50
Procedure: as §1

[1] = ADP-Glo, 50 μM ATP, read-out: STK3 IC50

Chain of STK4 (Q13043 whole entry): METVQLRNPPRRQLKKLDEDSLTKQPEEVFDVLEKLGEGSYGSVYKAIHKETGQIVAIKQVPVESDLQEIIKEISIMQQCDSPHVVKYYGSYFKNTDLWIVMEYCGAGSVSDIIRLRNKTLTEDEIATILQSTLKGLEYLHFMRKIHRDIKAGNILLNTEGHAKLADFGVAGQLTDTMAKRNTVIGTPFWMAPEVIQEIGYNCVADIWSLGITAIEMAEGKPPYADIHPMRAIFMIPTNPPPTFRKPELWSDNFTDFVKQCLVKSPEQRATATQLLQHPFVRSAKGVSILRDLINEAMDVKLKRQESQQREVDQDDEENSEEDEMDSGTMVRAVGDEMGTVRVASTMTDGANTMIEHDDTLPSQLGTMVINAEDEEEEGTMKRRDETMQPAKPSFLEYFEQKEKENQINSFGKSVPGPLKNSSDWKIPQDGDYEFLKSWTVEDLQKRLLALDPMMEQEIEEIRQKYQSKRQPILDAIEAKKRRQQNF
Chain of STK3 (Q13188 whole entry): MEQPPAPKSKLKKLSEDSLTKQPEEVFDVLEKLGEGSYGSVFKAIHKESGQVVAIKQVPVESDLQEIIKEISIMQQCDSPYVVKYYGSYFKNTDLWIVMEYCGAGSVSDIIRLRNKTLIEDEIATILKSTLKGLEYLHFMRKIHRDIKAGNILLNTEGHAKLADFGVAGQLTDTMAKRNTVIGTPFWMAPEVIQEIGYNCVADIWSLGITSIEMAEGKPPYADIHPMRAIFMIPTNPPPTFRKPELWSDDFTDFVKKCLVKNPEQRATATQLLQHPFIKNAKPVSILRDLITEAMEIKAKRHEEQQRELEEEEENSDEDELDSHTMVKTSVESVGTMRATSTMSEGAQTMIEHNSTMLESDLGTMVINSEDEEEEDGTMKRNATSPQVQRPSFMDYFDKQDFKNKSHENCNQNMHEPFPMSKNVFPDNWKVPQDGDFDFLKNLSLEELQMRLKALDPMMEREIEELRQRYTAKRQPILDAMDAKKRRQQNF

Structure (SMILES)	IC50 (STK3; [1])	IC50 (STK4)	IC50 (STK3)
C=CC(=O)Cc1nc(N2CCOCC2)c2c(-c3cccc(Cl)c3)c[nH]c2n1 [Compound 97, 1-(5-(3-chlorophenyl)-4-morpholino-7H-pyrrolo[2,3-d]pyrimidin-2-yl)but-3-en-2-one]	> 5000 nM	> 5000 nM	–
CNS(=O)(=O)c1ccc(Nc2nc(N3CCOCC3)c3c(-c4cccc(Cl)c4)c[nH]c3n2)cc1 [Compound 98, 4-((5-(3-chlorophenyl)-4-morpholino-7H-pyrrolo[2,3-d]pyrimidin-2-yl)amino)-N-methylbenzenesulfonamide]	< 1000 nM	< 1000 nM	–
COC(=O)c1ccc(Nc2nc(N3CCOCC3)c3c(-c4cccc(Cl)c4)c[nH]c3n2)cc1 [Compound 99, methyl 4-((5-(3-chlorophenyl)-4-morpholino-7H-pyrrolo[2,3-d]pyrimidin-2-yl)amino)benzoate]	> 5000 nM	> 5000 nM	–
O=C(O)c1ccc(Nc2nc(N3CCOCC3)c3c(-c4cccc(Cl)c4)c[nH]c3n2)cc1 [Compound 100, 4-((5-(3-chlorophenyl)-4-morpholino-7H-pyrrolo[2,3-d]pyrimidin-2-yl)amino)benzoic acid]	1000 to 5000 nM	< 1000 nM	–
O=[N+]([O-])c1ccc(Nc2nc(N3CCOCC3)c3c(-c4cccc(Cl)c4)c[nH]c3n2)cc1 [Compound 101, 5-(3-chlorophenyl)-4-morpholino-N-(4-nitrophenyl)-7H-pyrrolo[2,3-d]pyrimidin-2-amine]	> 5000 nM	> 5000 nM	–
CC(CO)CNc1ncnc2[nH]cc(-c3cccc(Cl)c3)c12 (stereo not drawn) [Compound 117, 3-((5-(3-chlorophenyl)-7H-pyrrolo[2,3-d]pyrimidin-4-yl)amino)-2-methylpropan-1-ol]	< 1000 nM	< 1000 nM	–
O=C1CCN(c2ncnc3[nH]cc(-c4cccc(Cl)c4)c23)CC1 [Compound 118, 1-(5-(3-chlorophenyl)-7H-pyrrolo[2,3-d]pyrimidin-4-yl)piperidin-4-one]	–	< 1000 nM	1000 to 5000 nM
N#Cc1ccc(Nc2nc(N3CCOCC3)c3c(-c4cccc(Cl)c4)c[nH]c3n2)cc1 [Compound 120, 4-((5-(3-chlorophenyl)-4-morpholino-7H-pyrrolo[2,3-d]pyrimidin-2-yl)amino)benzonitrile]	> 5000 nM	> 5000 nM	–

Now from value to molecule, other results behind:

IC50 (STK3; [1])	IC50 (STK4)	Structure (SMILES)	IC50 (STK3)
< 1000 nM	< 1000 nM	CC(O)CNc1ncnc2[nH]cc(-c3cccc(Cl)c3)c12 (stereo not drawn) [Compound 104, 1-((5-(3-chlorophenyl)-7H-pyrrolo[2,3-d]pyrimidin-4-yl)amino)propan-2-ol]	–
< 1000 nM	< 1000 nM	CN(C)C1CCN(c2ncnc3[nH]cc(-c4cccc(Cl)c4)c23)CC1 [Compound 107, 1-(5-(3-chlorophenyl)-7H-pyrrolo[2,3-d]pyrimidin-4-yl)-N,N-dimethylpiperidin-4-amine]	–
< 1000 nM	< 1000 nM	CC1CCN(c2ncnc3[nH]cc(-c4cccc(Cl)c4)c23)CC1 [Compound 109, 5-(3-chlorophenyl)-4-(4-methylpiperidin-1-yl)-7H-pyrrolo[2,3-d]pyrimidine]	–
< 1000 nM	< 1000 nM	COC1CCN(c2ncnc3[nH]cc(-c4cccc(Cl)c4)c23)CC1 [Compound 110, 5-(3-chlorophenyl)-4-(4-methoxypiperidin-1-yl)-7H-pyrrolo[2,3-d]pyrimidine]	–
< 1000 nM	< 1000 nM	CCCCNc1ncnc2[nH]cc(-c3cccc(Cl)c3)c12 [Compound 116, N-butyl-5-(3-chlorophenyl)-7H-pyrrolo[2,3-d]pyrimidin-4-amine]	–
1000 to 5000 nM	1000 to 5000 nM	COCC(C)CN(C)c1ncnc2[nH]cc(-c3cccc(Cl)c3)c12 (stereo not drawn) [Compound 122, 5-(3-chlorophenyl)-N-(3-methoxy-2-methylpropyl)-N-methyl-7H-pyrrolo[2,3-d]pyrimidin-4-amine]	–
< 1000 nM	< 1000 nM	COCC(C)CNc1ncnc2[nH]cc(-c3cccc(Cl)c3)c12 (stereo not drawn) [Compound 123, 5-(3-chlorophenyl)-N-(3-methoxy-2-methylpropyl)-7H-pyrrolo[2,3-d]pyrimidin-4-amine]	–
